Source: patent publication US9791451B2, “Squaraine based fluorescent probe and a process for the preparation thereof” (Council of Scientific & Industrial Research, priority 2013, dated 2017)
Where two headings read alike, the source gives them in different places.

Tests used:
Hep-G2 cells [1] = assay type: cell-based; conditions: for Fluorescence Intensity, DAPI Image: 380 nm exc; for Fluorescence Intensity, DAPI Image / Fluorescence Intensity, Alexa Image: complex 1×10^−6 M; for Fluorescence Intensity, Alexa Image: 640 nm exc
Protocol: (§1) The culture medium was prepared by dissolving 13.4 g of DMEM-high glucose (Sigma, USA) in 1 L of distilled water. Sodium bicarbonate (3.7 g L^−1) was added to the medium and the pH of the medium was adjusted to 7.4. This medium was then sterilized by passing through a sterile filter assembly fitted with a 0.22 μm filter (Millipore, USA) using a vacuum pump. Later, the medium was stored in pre-sterilized Borosil polypropylene bottles, at 4° C., until further use. To the prepared culture medium an antibiotic mixture (20 μL mL^−1 of 100× concentrate, Sigma, USA) was added. Fetal bovine serum (FBS) (Sigma, USA) was also added to the medium to give a final concentration of 10% (to 900 mL medium, 100 mL of FBS was added).
Hep G2 cells (Human Hepatocellular carcinoma cell lines), which was obtained, from National Centre for Cell Science, Pune, India, were stored in cryovials at −196° C. in liquid nitrogen, in a medium containing 70% FBS, 10% dimethyl sulfoxide (DMSO) and 20% DMEM. For revival, the vials were thawed by placing them in a water-bath maintained at 37° C. for 2-3 minutes followed by centrifugation at 3000 rpm for 3 minutes. Supernatent was removed and the pellet after suspending in medium were transferred into a radiation sterilized culturing flask, T-25 cm^2 (BD Biosciences) inside the laminar flow. Subsequently, the flask was placed in a CO2 incubator for 2 h. The viable cells stick to the culture flask while the dead cells remain in the medium. Later the medium was replaced with fresh medium containing 10% FBS and incubated till a cell confluency of 70-80%. The medium was then discarded following desired confluency. Following confluency, since the Hep G2 cells are adherent in nature, they were trypsinised by using 1 mL of trypsin (0.25%)—EDTA (0.53 mM) buffer containing 0.9% sodium chloride for […]. The cells were then transferred to a centrifuge tube and centrifuged at 2000 rpm for 3 min, followed by the removal of the supernatant.
For sub culturing, fresh DMEM containing 10% FBS was added under aseptic conditions. Cells were flushed with the help of pipette (1 mL) until the cells are completely dispersed into the medium. The cells were then diluted in a sterile complete medium at 1:3 times and transferred into fresh culture flasks. Then the flasks were placed inside CO2 incubator.
The 1:6 Sq-BSA Complex whose sensitivity of pH lies within the physiological region and due to the ratiometric fluorescence response (FIG. 14) was used in this system for monitoring minor pH fluctuations inside cells ratiometrically. Hep-G2 cells were pre-incubated with phosphate buffer of different pH (6.5, 7.0, 7.5) and kept for 10 minutes. The 1:6 Sq-BSA complex (1×10^−6 M), which was prepared by mixing 5 μl of Sq (4×10^−5 M, prepared in acetonitrile) and 15 μl of BSA protein (1.2×10^−3 M, prepared in phosphate buffer 4.2) was added to each cells and kept for 10 minutes. The cells were then centrifuged and diluted for 2 times and then images has taken using confocal fluorescence microscope using alexa (640 nm exc) and DAPI (380 nm exc) as filters. With respect to the pH of the wells the fluorescence intensity from the DAPI image was enhanced and the alexa image got quenched. Quantitative data for pH measurements in cells were obtained using bio-rad image data, explorer software (table 2). The viability of the cells after incubation of Sq-BSA complex was confirmed by the bright-field transmission measurements (FIG. 15 c, bottom).

[2] = Fluorescence detection of thiols (GSH) by Sq, selectivity and sensitivity; conditions: pH 8.0
Protocol: Sq detects GSH quantitatively with high sensitivity (2 nM) (FIG. 3). Formula 1 prepared in 30% ACN/25 mM phosphate buffer is used for monitoring thiol variations inside cells. […] The aggregation was confirmed by temperature-dependent UV/Vis and emission spectroscopic studies in 15% acetonitrile/water mixture (FIG. 5a and FIG. 5b). The self-assembly of Sq was established further by atomic force microscopy (AFM), transition electron microscopy (TEM) and DLS analysis. […] Formula 1 prepared in 25 mM phosphate buffer solution at a pH of 4.2 labels serum albumin proteins noncovalently, which is evident from the UV-vis and emission spectroscopic studies. The broad absorption (550-850 nm) corresponding to the absorption of Sq aggregates narrowed with a turn-on fluorescence at 700 nm exc @ 640 nm) emission upon addition of BSA protein was observed (FIGS. 7a & 7b). The solution of the Sq dye in phosphate buffer has a blue color but nonemissive (FIG. 7c, top). […] The 1:6 Sq-BSA complex whose pH sensitivity lies within the physiological region and due to the ratiometric fluorescence response (FIG. 14) this system was used for monitoring minor pH fluctuations inside cells ratiometrically. […] Quantitative data for pH measurements in cells were obtained using bio-rad image data explorer software (table 2). […]

[3] = Stability of the dye over pH; assay type: physicochemical
Description: Even though noncovalent interaction of serum albumin proteins and covalent interaction of thiol containing small molecules with squaraine dyes are known in individual cases, achieving both type of interaction by a single probe in a reversible fashion with an external stimulus remains challenging. Therefore, the first and foremost task was identifying an appropriate switchable dye molecule, which is stable at a broad pH window with distinct emission wavelengths during the different modes of interactions and having a tunable pH responsive interaction. […] This absorption band is similar to the absorption of Sq in acetonitrile in which the molecule exists in the monomeric state. […] Sq (6 μM) in a 25 mM phosphate buffer (pH 4.2) has no emission at 700 nm due to the aggregation. Upon addition of BSA protein, a gradual enhancement in the fluorescence intensity at 700 nm was observed (FIG. 7b). This fluorescence enhancement is due to the disassembly of aggregates and the consequent noncovalent interaction between Sq and BSA protein. The solution of the Sq dye in 25 mM phosphate buffer has a blue color and at this stage the dye is non emissive (FIG. 7c, top).

[4] = Self-assembly morphology by AFM, TEM and DLS; assay type: physicochemical
Description: The self-assembly of Sq was established by atomic force microscopy (AFM), transition electron microscopy (TEM) and DLS analysis. […] The dynamic light scattering (DLS) measurements of a buffer solution containing.

BSA protein = BSA protein (Bos taurus, UniProt P02769); experiment: Noncovalent (pH 4.2) and covalent (pH 8.2) labeling of serum albumin, fluorescence turn-on; assay type: binding, Bovine; conditions: 25 mM phosphate buffer, 6 μM
Sequence of BSA protein (P02769 25-607): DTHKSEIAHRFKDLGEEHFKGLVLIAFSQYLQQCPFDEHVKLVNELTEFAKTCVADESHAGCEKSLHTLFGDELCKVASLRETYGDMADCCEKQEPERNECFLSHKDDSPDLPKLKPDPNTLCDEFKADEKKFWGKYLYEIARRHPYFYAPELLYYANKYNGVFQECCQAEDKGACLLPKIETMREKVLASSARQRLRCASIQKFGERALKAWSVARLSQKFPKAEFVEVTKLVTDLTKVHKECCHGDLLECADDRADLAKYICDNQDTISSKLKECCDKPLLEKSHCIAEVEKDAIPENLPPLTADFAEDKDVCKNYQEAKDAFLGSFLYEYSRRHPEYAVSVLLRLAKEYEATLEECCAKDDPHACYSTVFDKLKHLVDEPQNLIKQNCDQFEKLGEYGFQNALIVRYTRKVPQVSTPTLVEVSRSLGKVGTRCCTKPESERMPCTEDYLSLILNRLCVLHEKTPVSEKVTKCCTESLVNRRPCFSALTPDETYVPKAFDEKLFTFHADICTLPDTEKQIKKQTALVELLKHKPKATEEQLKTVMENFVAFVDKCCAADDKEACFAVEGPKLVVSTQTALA
Protocol: Stock solution of Sq (1.2×10^−3 M) was prepared in acetonitrile and stock solution of BSA protein (2.4×10^−3M) was prepared in 25 mM phosphate buffer at pH 4.2. 15 μL of Sq from the stock solution is added to the 25 mM phosphate buffer at pH 4.2, to make the resulting concentration of the solution into 6×10^−6 M. To this solution different volumes ranging from 7.5-150 μL of BSA protein were added and the absorption and emission spectra were recorded each time after 20 minutes. The broad absorption (550-850 nm) corresponding to the absorption of Sq aggregates narrowed with a turn-on fluorescence at 700 nm (λexc @ 640 nm) emission was observed.
Stock solution of Sq (1.2×10^−3 M) was prepared in acetonitrile and stock solution of BSA protein (1.2×10^−3 M) was prepared in 25 mM phosphate buffer at a pH of 8.2. 15 μL of Sq from the stock solution is added to 25 mM phosphate buffer at pH 8.2, to make the resulting concentration of the solution to 6×10^−6 M. To this solution different volumes ranging from 1.5-36 μL of BSA protein were added and the absorption and emission spectra were recorded at 15 minutes interval. The broad absorption (550-850 nm) corresponding to the absorption of Sq aggregates quenched with concomitant formation of an absorption at 380 nm was observed (FIG. 8a). […]

HSA protein = HSA protein (Homo sapiens, UniProt P02768); experiment: as above; assay type: binding; conditions: 25 mM phosphate buffer, 6 μM
Sequence of HSA protein (P02768 25-609): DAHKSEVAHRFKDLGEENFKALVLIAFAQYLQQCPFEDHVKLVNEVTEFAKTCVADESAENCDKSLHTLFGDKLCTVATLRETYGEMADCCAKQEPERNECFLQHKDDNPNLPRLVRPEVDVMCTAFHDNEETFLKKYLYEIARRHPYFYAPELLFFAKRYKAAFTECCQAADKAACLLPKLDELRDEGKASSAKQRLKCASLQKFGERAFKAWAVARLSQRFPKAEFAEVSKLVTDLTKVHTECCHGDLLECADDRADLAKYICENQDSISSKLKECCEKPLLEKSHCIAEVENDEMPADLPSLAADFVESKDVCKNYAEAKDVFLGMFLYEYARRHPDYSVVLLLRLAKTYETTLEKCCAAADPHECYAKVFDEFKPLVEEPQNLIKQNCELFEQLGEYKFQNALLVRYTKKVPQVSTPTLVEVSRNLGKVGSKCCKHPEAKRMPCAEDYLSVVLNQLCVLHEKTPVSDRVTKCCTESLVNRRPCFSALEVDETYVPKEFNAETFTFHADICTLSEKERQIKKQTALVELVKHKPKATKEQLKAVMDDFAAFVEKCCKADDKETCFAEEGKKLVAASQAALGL
Description: (§2) This selectivity apparently originates from the Sq disassembly driven by the molecular recognition sites of the serum albumin proteins.

[5] = tested on: other thiol and nonthiol containing proteins (heamoglobin, glutathione reductase, bromelain); experiment: Selectivity against other thiol and nonthiol containing proteins; assay type: binding
Description: as §2

[6] = Selectivity against small thiol containing molecules in self-assembled state; conditions: 10 equivalent; Sq 6×10^−6 M; 480 nm
Description: The selectivity of our nanoprobe towards serum albumin proteins from small thiol containing molecules like cysteine, homocysteine, glutathione, mercaptoethanol, dithiothreitol, cystamine and thioglycolic acid at a higher pH of 8.2, where the dye is expected to undergo thiol alkylation reaction is investigated. […] Bar diagram represents the selectivity of Sq (6×10^−6 M) for BSA and HSA protein (6×10^−6 M) from other small thiol containing molecules (FIG. 10) which clearly indicate that the probe in its self-assembled state is able to detect serum albumin protein among other thiol containing small molecules.

Hep-G2 cells [7] = experiment: Detection of minor thiol fluctuations inside HepG2 cells pre-treated with NEM; assay type: cell-based, Human; conditions: NEM 3×10^−3 M to 3×10^−6 M, 15 minutes; dye 10 minutes
Protocol: as §1
Hep G2 cells (Human Hepatocellular carcinoma cell lines), which was obtained, from National Centre for Cell Science, Pune, India, were stored in cryovials at −196° C. in liquid nitrogen, in a medium containing 70% FBS, 10% dimethyl sulfoxide (DMSO) and 20% DMEM. […]
Hep-G2 cells were pre-incubated with NEM of various concentrations (3×10^−3 M to 3×10^−6 M) and kept for 15 minutes. […] The cells were then centrifuged and diluted for 2 times and then images were-taken using confocal fluorescence microscope using alexa (640 nm exc) and DAPI (380 nm exc) as filters.

For “1:6 Sq-BSA complex: complex of squaraine dye Sq with BSA protein in ratio 1:6”, the “viability of the cells after incubation” value (Hep-G2 cells [1]) was “confirmed”, the “Fluorescence Intensity, DAPI Image” value (Hep-G2 cells [1]; pH 6.5) was 8.5 and the “Fluorescence Intensity, Alexa Image” value (Hep-G2 cells [1]; pH 6.5) was 39.84. The “Fluorescence Intensity, DAPI Image” value (Hep-G2 cells [1]; pH 7.0) was 24.61, the “Fluorescence Intensity, Alexa Image” value (Hep-G2 cells [1]; pH 7.0) was 21.47 and the “Fluorescence Intensity, DAPI Image” value (Hep-G2 cells [1]; pH 7.5) was 30.18. For the same compound, the “Fluorescence Intensity, Alexa Image” value (Hep-G2 cells [1]; pH 7.5) was 18.08.

With `CCCCN(CCCC)c1ccc(C2=C(O)C(c3ccc(/C=C/c4cc(OC)ccc4OC)n3CCOCCOCCOC)C2=O)cc1` (centres unmarked) [Sq, (E)-2-(4-(dibutylamino)phenyl)-4-(5-(2,5-dimethoxystyryl)-1-(2-(2-(2-methoxyethoxy)ethoxy)ethyl)-1H-pyrrol-2-yl)-3-hydroxycyclobut-2-enone] the “selectivity toward thiols among amino acids (fluorescence at 510 nm)” value ([2]; 20 equivalence of 9 amino acids, 1 equivalence Cys, Hcy, GSH) was “highly selective to GSH”, the “detection limit for GSH (fluorescent intensity at 510 nm)” value ([2]; 30% ACN/25 mM phosphate buffer, λexc 380 nm) was 2 nM and the “pH range of stability” value [3] was 2-12. The “diameter of spherical aggregates (AFM and TEM)” value ([4]; 6×10^−6 M in 25 mM phosphate buffer, pH 4.2) was 100-300 nm, the “mean diameter of aggregates (DLS)” value ([4]; buffer solution, Sq 6 μM) was 200 nm and the “fluorescence response with BSA at pH 8.2 (covalent labeling)” value (BSA protein; λexc 380 nm) was “green emission at 480 nm”. The “fluorescence response with BSA at pH 4.2 (noncovalent labeling)” value (BSA protein; λexc 640 nm) was “fluorescence enhancement at 700 nm”, the “fluorescence response with HSA at pH 8.2 (covalent labeling)” value (HSA protein; λexc 380 nm) was “green emission at 480 nm” and the “fluorescence response with HSA at pH 4.2 (noncovalent labeling)” value (HSA protein; λexc 640 nm) was “fluorescence enhancement at 700 nm”. For the same compound, the “fluorescence response with heamoglobin, glutathione reductase, bromelain at pH 8.2” value ([5]; 0.10 equivalence, 480 nm) was “unable to produce fluorescence enhancement at 480 nm”, the “fluorescence response with other thiols and nonthiol containing proteins at pH 4.2” value ([5]; 10 equivalence, 700 nm) was “no fluorescence enhancement in the NIR region” and the “fluorescence response with thiol containing small molecules at pH 8.2” value [6] was “unable to generate much fluorescent enhancement in the 480 nm region”. The “fluorescence intensity in cells versus NEM concentration” value (Hep-G2 cells [7]) was “gradual quenching”.
